From ChEMBL document CHEMBL1949518, “Synthesis and biological evaluation of some new 2-pyrazolines bearing benzene sulfonamide moiety as potential anti-inflammatory and anti-cancer agents” (Eur J Med Chem, 2011)

Legend:
Rattus norvegicus [1] = assay: Antiinflammatory activity in Wistar rat assessed as inhibition of carrageenan-induced paw edema at 20 mg/kg, po administered 30 mins before carrageenan challenge measured after 3 hrs; type: functional
Rattus norvegicus [2] = assay: Antiinflammatory activity in Wistar rat assessed as inhibition of carrageenan-induced paw edema at 20 mg/kg, po administered 30 mins before carrageenan challenge measured after 5 hrs; type: functional
[3] = biological target: Prostaglandin G/H synthase 1 (Bos taurus, UniProt O62664); assay: Inhibition of bovine COX1 assessed as PGE2 formation preincubated for 10 mins by ELISA
Chain of Prostaglandin G/H synthase 1 (O62664 whole entry): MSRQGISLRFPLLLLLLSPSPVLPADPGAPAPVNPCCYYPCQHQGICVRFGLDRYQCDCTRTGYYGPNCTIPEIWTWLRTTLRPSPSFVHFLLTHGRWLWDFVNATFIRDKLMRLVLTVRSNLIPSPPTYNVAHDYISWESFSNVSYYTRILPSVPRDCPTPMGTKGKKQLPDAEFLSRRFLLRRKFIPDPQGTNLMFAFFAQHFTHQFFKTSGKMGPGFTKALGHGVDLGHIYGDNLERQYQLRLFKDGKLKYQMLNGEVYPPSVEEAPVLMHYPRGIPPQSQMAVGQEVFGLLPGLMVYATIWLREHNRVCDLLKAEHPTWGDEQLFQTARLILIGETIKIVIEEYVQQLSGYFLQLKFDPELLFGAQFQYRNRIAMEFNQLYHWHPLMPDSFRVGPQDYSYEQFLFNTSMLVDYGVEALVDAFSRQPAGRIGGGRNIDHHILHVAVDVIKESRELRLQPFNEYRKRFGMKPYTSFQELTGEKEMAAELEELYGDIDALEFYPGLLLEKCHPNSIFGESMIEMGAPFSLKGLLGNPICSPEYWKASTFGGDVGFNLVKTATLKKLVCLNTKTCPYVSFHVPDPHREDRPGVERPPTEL

Mus musculus [4] = assay: Toxicity in Swiss albino mouse assessed as mortality at 100 mg/kg, po measured up to 24 hrs; type: organism-based; design: dose 100 mg/kg, route oral; settings: in vivo
Mus musculus [5] = assay: Toxicity in Swiss albino mouse assessed as behavioral change at 100 mg/kg, po measured up to 24 hrs; type: organism-based; design: dose 100 mg/kg, route oral; settings: in vivo
Rattus norvegicus [6] = assay: Ulcerogenic activity in fasted Wistar albino rat at 60 mg/kg, po administered as 3 dose measured after 6 hrs post last dose; type: toxicity, organism-based; design: dose 60 mg/kg, route oral; settings: in vivo

SMILES | inhibition in vivo at 20 mg/kg (Rattus norvegicus [1]) | inhibition in vivo at 20 mg/kg (Rattus norvegicus [2]) | IC50 [3] | Activity (Mus musculus [4]) | Activity (Mus musculus [5]) | Activity (Rattus norvegicus [6])
Cc1cc(O)c(C2=NN(c3ccc(S(N)(=O)=O)cc3)C(c3ccccc3)C2)c(C)c1Cl (stereo unspecified) | 20% | 36.4% |  |  |  | 
Cc1cc(O)c(C2=NN(c3ccc(S(N)(=O)=O)cc3)C(c3ccccc3Cl)C2)c(C)c1Cl (stereo unspecified) | 53% | 45.5% |  |  |  | 
Cc1cc(O)c(C2=NN(c3ccc(S(N)(=O)=O)cc3)C(c3ccccc3O)C2)c(C)c1Cl (stereo unspecified) | 79% | 75% | 65.4 µM | Non-toxic | Non-toxic | Non-toxic
COc1ccc(C2CC(c3c(O)cc(C)c(Cl)c3C)=NN2c2ccc(S(N)(=O)=O)cc2)cc1OC (stereo unspecified) | 26.7% | 45.5% |  |  |  | 
COc1cc(C2CC(c3c(O)cc(C)c(Cl)c3C)=NN2c2ccc(S(N)(=O)=O)cc2)cc(OC)c1OC (stereo unspecified) | 68.4% | 75% |  |  |  | 
Cc1ccc(-c2cc(C(F)(F)F)nn2-c2ccc(S(N)(=O)=O)cc2)cc1 [CELECOXIB] | 79.6% | 82% |  |  |  | 
